Results as given in patent publication US8501734B2, “Medical intervention in haematological cancers” (Oncotyrol-Center for Personalized Cancer Medicine GmbH …, priority 2008, dated 2013).

Columns and labels:
OPM2 cells = test: Annexin V/PI apoptosis assay (FACS), OPM2 cells; format: cell-based; design: apoptosis induction: unit not given here; conditions: OPM2 cells
Protocol: (§1) After treatment adherent cells were trypsinized (as described before), and resuspended in corresponding full medium. Suspension cells or trypsinized adherent cells, supernatant and washing solution (1×PBS from washing before trypsinization) were pooled and then spun down (300 g for 3 min) washed in 2 ml and resuspended in 1000 of annexin V binding buffer and mixed with 2 μg/ml annexin V-Allophycocyanin (APC) (BD-Pharmingen, San Diego, Calif., USA) and 50 ng/ml of propidium iodide (PI; Sigma Aldrich). At least 10.000 cells were measured per sample using a Becton Dickinson FACSCalibur flow Cytometer (San Jose, Calif., USA). Percentage of Annexin V negative and PI negative cells were depicted in the figures. For the analysis of the pro-apoptotic activity of Imiquimod® in primary MM cells and non-malignant BMMCs, 5×10^5 cells BMMCs cells were treated with or without 40 μg/ml Imiquimod® for the indicated time periods. Cells were then harvested and washed twice with PBS. Detection of apoptotic cells was performed using the annexin V/PI assay according to manufacturers' instruction. Briefly, BMMCs were stained with a mixture of annexin V/FITC (Alexis Coorp., Laeufelfingen, Switzerland), propidium iodide (Sigma), anti-CD38-PE and anti-CD45-PC5 for 15 min at room temperature and immediately analyzed by flow cytometry. The percentages of viable cells (i.e. cells negative for annexin V/FITC and PI) within the MM (CD38^posCD45^low/absent) and non-MM fraction (CD38^neg/CD45^pos) were determined by flow cytometry.
Cells were cultured as described before and, treated with 40 μg/ml Imiquimod® or Gardiquimod® for 24 h, and apoptosis was assayed by AnnexinV/PI staining and FACS analysis.
(§2) Adherent cells were grown in 24-well plates to confluence and treated with 40 μg/ml Imiquimod® for 24 h. Cells were then trypsinized, suspended in full medium, stained for AnnexinV/PI and apoptosis was measured as described before. Suspension cells (250.000) were treated with 40 μg/ml Imiquimod® for 24 h, stained for Annexin/PI and apoptosis was measured as described above (Annexin V/Propidium Iodide apoptosis Assay).
(§3) OPM-2 and U266 cells (2.5×10^5 in 500 μl) were treated with either Imiquimod® alone (10 μg/500 μl), various inhibitors/drugs alone or with the combination of Imiquimod® and inhibitors for 24 or 48 h. In the controls the solvent of the drug has been added in appropriate amounts. Cells were then AnnexinV/PI stained and apoptosis measured as described before.

U266 cells = test: Annexin V/PI apoptosis assay (FACS), U266 cells; format: cell-based; design: apoptosis induction: unit not given here; also: key: 0 for no; + for low; ++: + indicates the range of apoptosis induction; +++: + indicates the range of apoptosis induction; ++++ for very strong apoptosis induction
Protocol: as §1, §2, §3

[1] = 24 h, Imi 20 μg/ml + drug 10 nM
[2] = 24 h, Imi 20 μg/ml + drug 100 nM
[3] = 48 h, Imi 20 μg/ml + drug 10 nM
[4] = 48 h, Imi 20 μg/ml + drug 100 nM
[5] = 24 h, Imi 20 μg/ml + drug 10 μM
[6] = 24 h, Imi 20 μg/ml + drug 20 μM
[7] = 24 h, Imi 20 μg/ml + drug 50 μM
[8] = 48 h, Imi 20 μg/ml + drug 10 μM
[9] = 48 h, Imi 20 μg/ml + drug 20 μM
[10] = 48 h, Imi 20 μg/ml + drug 50 μM
[11] = 24 h, Imi 20 μg/ml + drug 100 μM
[12] = 48 h, Imi 20 μg/ml + drug 100 μM

With C[C@@H]1C[C@H]2[C@@H]3CCC4=CC(=O)C=C[C@]4(C)[C@@]3(F)[C@@H](O)C[C@]2(C)[C@@]1(O)C(=O)CO [Dex., Dexamethasone] the apoptosis induction (OPM2 cells; [1]) was “+”, the apoptosis induction (OPM2 cells; [2]) was “+” and the apoptosis induction (OPM2 cells; 24 h, Imi 20 μg/ml + drug 1 μM) was “+”. For the same compound, the apoptosis induction (OPM2 cells; 24 h, drug alone 10 nM) was 0, the apoptosis induction (OPM2 cells; 24 h, drug alone 100 nM) was 0 and the apoptosis induction (OPM2 cells; 24 h, drug alone 1 μM) was 0. For the same compound, the apoptosis induction (OPM2 cells; [3]) was “++”, the apoptosis induction (OPM2 cells; [4]) was “+++” and the apoptosis induction (OPM2 cells; 48 h, Imi 20 μg/ml + drug 1 μM) was “+++”. It also gave an apoptosis induction (OPM2 cells; 48 h, drug alone 10 nM) of 0, an apoptosis induction (OPM2 cells; 48 h, drug alone 100 nM) of 0 and an apoptosis induction (OPM2 cells; 48 h, drug alone 1 μM) of 0. The apoptosis induction (U266 cells; [1]) was “+”, the apoptosis induction (U266 cells; [2]) was “+” and the apoptosis induction (U266 cells; 24 h, Imi 20 μg/ml + drug 1 μM) was “+”. The apoptosis induction (U266 cells; 24 h, drug alone 10 nM) was 0, the apoptosis induction (U266 cells; 24 h, drug alone 100 nM) was 0 and the apoptosis induction (U266 cells; 24 h, drug alone 1 μM) was 0. For the same compound, the apoptosis induction (U266 cells; [3]) was “+”, the apoptosis induction (U266 cells; [4]) was “+” and the apoptosis induction (U266 cells; 48 h, Imi 20 μg/ml + drug 1 μM) was “+”. For the same compound, the apoptosis induction (U266 cells; 48 h, drug alone 10 nM) was 0, the apoptosis induction (U266 cells; 48 h, drug alone 100 nM) was 0 and the apoptosis induction (U266 cells; 48 h, drug alone 1 μM) was 0.

CCNCc1nc2c(N)nc3ccccc3c2n1CC(C)(C)O [Gardiquimod, 1-(4-Amino-2-ethylaminomethylimidazo[4,5-c]quinolin-1-yl)-2-methylpropan-2-ol] was tested, and the “apoptosis induction compared with Imiquimod” value (OPM2 cells; 40 μg/ml, 24 h) was “comparable, though slightly lower extend”.

In the case of Cn1c2ccccc2c2c3c(c4c5ccccc5n(CCC#N)c4c21)CNC3=O [Gö 6976], the apoptosis induction (OPM2 cells; [2]) is reported as “+”, the apoptosis induction (OPM2 cells; 24 h, Imi 20 μg/ml + drug 1 μM) is reported as “++” and the apoptosis induction (OPM2 cells; 24 h, Imi 20 μg/ml + drug 5 μM) is reported as “++”. It also gave an apoptosis induction (OPM2 cells; 24 h, drug alone 100 nM) of 0, an apoptosis induction (OPM2 cells; 24 h, drug alone 1 μM) of 0 and an apoptosis induction (OPM2 cells; 24 h, drug alone 5 μM) of 0. For the same compound, the apoptosis induction (OPM2 cells; [4]) was “++”, the apoptosis induction (OPM2 cells; 48 h, Imi 20 μg/ml + drug 1 μM) was “+++” and the apoptosis induction (OPM2 cells; 48 h, Imi 20 μg/ml + drug 5 μM) was “+++”. For the same compound, the apoptosis induction (OPM2 cells; 48 h, drug alone 100 nM) was 0, the apoptosis induction (OPM2 cells; 48 h, drug alone 1 μM) was 0 and the apoptosis induction (OPM2 cells; 48 h, drug alone 5 μM) was “+”. The apoptosis induction (U266 cells; [2]) was “+”, the apoptosis induction (U266 cells; 24 h, Imi 20 μg/ml + drug 1 μM) was “++” and the apoptosis induction (U266 cells; 24 h, Imi 20 μg/ml + drug 5 μM) was “++”. For the same compound, the apoptosis induction (U266 cells; 24 h, drug alone 100 nM) was 0, the apoptosis induction (U266 cells; 24 h, drug alone 1 μM) was 0 and the apoptosis induction (U266 cells; 24 h, drug alone 5 μM) was 0. The apoptosis induction (U266 cells; [4]) was “++”, the apoptosis induction (U266 cells; 48 h, Imi 20 μg/ml + drug 1 μM) was “+++” and the apoptosis induction (U266 cells; 48 h, Imi 20 μg/ml + drug 5 μM) was “+++”. The apoptosis induction (U266 cells; 48 h, drug alone 100 nM) was 0, the apoptosis induction (U266 cells; 48 h, drug alone 1 μM) was 0 and the apoptosis induction (U266 cells; 48 h, drug alone 5 μM) was “+”.

For N[C@@H](Cc1ccc(N(CCCl)CCCl)cc1)C(=O)O [Melphalan], the apoptosis induction (OPM2 cells; [5]) was “+”, the apoptosis induction (OPM2 cells; [6]) was “++” and the apoptosis induction (OPM2 cells; [7]) was “++”. For the same compound, the apoptosis induction (OPM2 cells; 24 h, drug alone 10 μM) was “+”, the apoptosis induction (OPM2 cells; 24 h, drug alone 20 μM) was “+” and the apoptosis induction (OPM2 cells; 24 h, drug alone 50 μM) was “++”. The apoptosis induction (OPM2 cells; [8]) was “++”, the apoptosis induction (OPM2 cells; [9]) was “++++” and the apoptosis induction (OPM2 cells; [10]) was “++++”. For the same compound, the apoptosis induction (OPM2 cells; 48 h, drug 20 μM and 50 μM + Imiquimod 20 μg/ml) was “nearly complete apoptosis induction in all cells”, the apoptosis induction (OPM2 cells; 48 h, drug alone 10 μM) was “+” and the apoptosis induction (OPM2 cells; 48 h, drug alone 20 μM) was “++”. The apoptosis induction (OPM2 cells; 48 h, drug alone 50 μM) was “+++”, the apoptosis induction (U266 cells; [5]) was “+” and the apoptosis induction (U266 cells; [6]) was “++”. For the same compound, the apoptosis induction (U266 cells; [7]) was “+++”, the apoptosis induction (U266 cells; 24 h, drug alone 10 μM) was “+” and the apoptosis induction (U266 cells; 24 h, drug alone 20 μM) was “+”. For the same compound, the apoptosis induction (U266 cells; 24 h, drug alone 50 μM) was “++”, the apoptosis induction (U266 cells; [8]) was “++” and the apoptosis induction (U266 cells; [9]) was “++”. For the same compound, the apoptosis induction (U266 cells; [10]) was “+++”, the apoptosis induction (U266 cells; 48 h, drug alone 10 μM) was “+” and the apoptosis induction (U266 cells; 48 h, drug alone 20 μM) was “+”. For the same compound, the apoptosis induction (U266 cells; 48 h, drug alone 50 μM) was “+++”.

CNC(=O)c1cc(Oc2ccc(NC(=O)Nc3ccc(Cl)c(C(F)(F)F)c3)cc2)ccn1 [Sorafenib] was tested, and the apoptosis induction (OPM2 cells; 24 h, Imi 20 μg/ml + drug 1 μM) was “+”, the apoptosis induction (OPM2 cells; [5]) was “+” and the apoptosis induction (OPM2 cells; [7]) was “++++”. For the same compound, the apoptosis induction (OPM2 cells; 24 h, drug alone 1 μM) was 0, the apoptosis induction (OPM2 cells; 24 h, drug alone 10 μM) was “+” and the apoptosis induction (OPM2 cells; 24 h, drug alone 50 μM) was “++++”. For the same compound, the cells in apoptosis (OPM2 cells; 48 h, 10 μM drug + Imiquimod 20 μg/ml) was ~100%, the apoptosis induction (OPM2 cells; 48 h, Imi 20 μg/ml + drug 1 μM) was “++” and the apoptosis induction (OPM2 cells; [8]) was “++++”. The apoptosis induction (OPM2 cells; [10]) was “++++”, the apoptosis induction (OPM2 cells; 48 h, drug alone 1 μM) was 0 and the apoptosis induction (OPM2 cells; 48 h, drug alone 10 μM) was “++”. The apoptosis induction (OPM2 cells; 48 h, drug alone 50 μM) was “++++”, the cell killing (OPM2 cells; drug alone 50 μM) was “completely killed cells” and the apoptosis induction (U266 cells; 24 h, Imi 20 μg/ml + drug 1 μM) was 0. The apoptosis induction (U266 cells; [5]) was “+”, the apoptosis induction (U266 cells; [7]) was “+++” and the apoptosis induction (U266 cells; 24 h, drug alone 1 μM) was 0. For the same compound, the apoptosis induction (U266 cells; 24 h, drug alone 10 μM) was 0, the apoptosis induction (U266 cells; 24 h, drug alone 50 μM) was “+++” and the apoptosis induction (U266 cells; 48 h, Imi 20 μg/ml + drug 1 μM) was “+”. The apoptosis induction (U266 cells; [8]) was “++”, the apoptosis induction (U266 cells; [10]) was “+++” and the apoptosis induction (U266 cells; 48 h, drug alone 1 μM) was “+”. For the same compound, the apoptosis induction (U266 cells; 48 h, drug alone 10 μM) was “+” and the apoptosis induction (U266 cells; 48 h, drug alone 50 μM) was “+++”.

In the case of O=C1CCC(N2C(=O)c3ccccc3C2=O)C(=O)N1 (stereo not shown) [Thalidomide], the apoptosis induction (OPM2 cells; [5]) is reported as “+”, the apoptosis induction (OPM2 cells; [11]) is reported as “+” and the apoptosis induction (OPM2 cells; 24 h, Imi 20 μg/ml + drug 1 mM) is reported as “+”. It also gave an apoptosis induction (OPM2 cells; 24 h, drug alone 10 μM) of 0, an apoptosis induction (OPM2 cells; 24 h, drug alone 100 μM) of 0 and an apoptosis induction (OPM2 cells; 24 h, drug alone 1 mM) of 0. For the same compound, the apoptosis induction (OPM2 cells; [8]) was “++”, the apoptosis induction (OPM2 cells; [12]) was “++” and the apoptosis induction (OPM2 cells; 48 h, Imi 20 μg/ml + drug 1 mM) was “+++”. The apoptosis induction (OPM2 cells; 48 h, drug alone 10 μM) was 0, the apoptosis induction (OPM2 cells; 48 h, drug alone 100 μM) was 0 and the apoptosis induction (OPM2 cells; 48 h, drug alone 1 mM) was 0. The apoptosis induction (U266 cells; [5]) was “+”, the apoptosis induction (U266 cells; [11]) was “+” and the apoptosis induction (U266 cells; 24 h, Imi 20 μg/ml + drug 1 mM) was “+”. For the same compound, the apoptosis induction (U266 cells; 24 h, drug alone 10 μM) was 0, the apoptosis induction (U266 cells; 24 h, drug alone 100 μM) was 0 and the apoptosis induction (U266 cells; 24 h, drug alone 1 mM) was “+”. For the same compound, the apoptosis induction (U266 cells; [8]) was “+”, the apoptosis induction (U266 cells; [12]) was “+” and the apoptosis induction (U266 cells; 48 h, Imi 20 μg/ml + drug 1 mM) was “+”. The apoptosis induction (U266 cells; 48 h, drug alone 10 μM) was 0, the apoptosis induction (U266 cells; 48 h, drug alone 100 μM) was 0 and the apoptosis induction (U266 cells; 48 h, drug alone 1 mM) was “+”.
